# Measurements from PMC9855386, “Obtaining a Monoclonal Antibody against a Novel Prometryn-Like Hapten and Characterization of Its Selectivity for Triazine Herbicides” (Biosensors, 2022).
# Legend:
# [1] = tested on: 7D4 mAb (mouse monoclonal anti-prometryn antibody); experiment: ic-ELISA cross-reactivity of the 7D4 mAb with triazines; assay type: binding; settings: for Cross-Reactivity: relative to prometryn = 100%
# Method: (§1) The ic-ELISA method was used to screen the best-performing fusion mouse sera. They were used to establish the standard curve of antibodies by detecting the supernatant of positive cells. The buffer required for ic-ELISA was the same as previously reported. The specific steps of the operation are as follows: (1) The coated antigen was added to the microplate by diluting it with the required coating solutions (CBS, pH 9.6, 0.05 mol/L). Each well contained 100 µL, which was incubated at 37 °C for three h before being washed three times with washing buffer (PBST, PBS containing 0.1% Tween-20). (2) With sample dilution buffer (PBSTG, PBST containing 0.1% gelatin), the standard prometryn sample and the antiserum/antibody from mice were diluted to the required concentration. The microplate was incubated for 30 min at 37 °C with 50 µL of diluted antiserum or antibody and standard samples of various concentrations. PBST was used three times to wash the dishes. (3) Then, 100 µL of PBSTG-diluent IgG HRP (labeled goat anti-mouse IgG with HRP) was added to each well. After 30 min at 37 °C, the plate was cleaned three times with PBST. (4) Each well was incubated for 15 min in the dark at 25 °C with 100 µL of TMB color developing solution. To stop the reaction, 50 µL of the hydrochloric acid solution was added to each well. The absorbance at OD450 nm was measured with a TECAN Infinite M200 PRO microplate reader from Männedorf, Switzerland.
# The ic-ELISA method was used to determine the ideal antibody and antigen mix. The coating antigen and antibody concentration used in the experiment was 1 mg/mL. The dilution multiples of the coating were 1 × 10^3, 2 × 10^3, 4 × 10^3, and 8 × 10^3. The prometryn standard was 1000 ng/mL. The best concentration combination of antigen and antibody was selected to establish the standard curve of the antibody. Prometryn standards were diluted to 1000, 500, 250, 125, 62.5, 31.25, 15.625, 7.8125, 3.90625, and 0 ng/mL, with PBSTG for subsequent ic-ELISA experiments. The standard curve was determined by ic-ELISA. […] Each measured OD value in the curve is the average of three independent repeats. The 7D4 mAb’s inhibition rate was well linearly correlated with the prometryn concentration. […] The 7D4 mAb type was identified as IgG1 using a mouse antibody isotyping kit from Sigma®, St. Louis, MO, USA.
# Eleven triazine herbicides were selected to determine their cross-reactivity with 7D4 mAb. […] The cross-reaction rate with the other seven triazines was less than 1%. The hybridoma cell line 7D4 screened in this study can specifically recognize prometryn. […] The cross-reaction rate may vary depending on the immunoassay format and the competitive hapten preparation used.
# mouse antiserum = experiment: ic-ELISA serum titer and inhibition rate of mice for the fusion experiment (Table S2); assay type: binding; settings: prometryn 1000 ng/mL
# Method: The Institute of Quality Standards and Testing Technology for Agro-Products’ Experimental Animal Welfare and Ethical Committee (IQSTAP-2021-05) approved the use of animals in experiments. The buffer solution (0.01 M PBS, pH = 7.4) was used to dilute the immunogen (2 mg/mL) to 1 mg/mL. After that, Freund’s adjuvant was added to an identical volume of 0.1 mL in a sterile glass vial. The mixture was placed on a magnetic stirrer and stirred and mixed rapidly in an ice bath to fully emulsify. Six 7-week-old female BALB/c mice were selected for immunization. At the beginning of the third immunization, 3–5 days after each immunization, blood was taken from the orbit, incubated at 37 °C for 0.5 h and 4 °C for 2 h, and centrifuged at 1000 r/min for 10 min. Serum was collected, and the serum titer was determined. The immune strategy of mice was the same as that previously reported. Freund’s […] vaccination, and for the subsequent booster vaccination, Freund’s incomplete adjuvant was utilized. Freund’s adjuvant and immunogen during immunization should be 1:1 and thoroughly mixed until dripping into the water to prevent diffusion. The interval of booster immunization was 2 weeks, and the immune dose was 0.1 mg. Three days before fusion, the mice with the best performance were immunized with a dose of 0.05 mg. The mice were intraperitoneally injected without adjuvant.
# as §1
# Ic-ELISA was used to measure the inhibition rate and serum titer of six immunized mice. Three days before cell fusion, Balb/c mice with the highest performance were selected and immunized. SP2/0 myeloma cells and mouse spleen cells were combined for fusion. After fusion, the supernatant of hybridoma cells was determined by indirect competitive enzyme-linked immunosorbent assay, the positive wells were screened, and the hybridoma cells were cloned to obtain hybridoma cell lines that can stably secrete monoclonal antibodies against prometryn. After the positive cell lines were expanded and cultured, mice treated with paraffin 7 days earlier were injected intraperitoneally. Ascites were collected after abdominal swelling and centrifuged at 4 °C at 1000 rpm, and the potency and inhibition rate of ascites were determined and frozen at −20 °C for purification. The 7D4 mAb against prometryn was obtained by purifying the […] with the octanoic acid-saturated ammonium sulfate method. […]
smiles,measurement,setting,value
"CSc1nc(NC(C)C)nc(NC(C)C)n1 [Prometryn, 2-methylthio-4,6-di(isopropylamino)-1,3,5-triazobenzene]",IC50,"[1]; ic-ELISA, analyte 1000-15.625 and 0 ng/mL",3.901 ng/mL
same,Cross-Reactivity,[1],100%
same,Cross-Reactivity,[1]; listed as prometryn,100%
same,IR (inhibition rate),"mouse antiserum; dilution of immunogen 1×103, serum dilution 1.28×105",-7.66%
same,IR (inhibition rate),"mouse antiserum; dilution of immunogen 1×103, serum dilution 1.6×104",65.86%
same,IR (inhibition rate),"mouse antiserum; dilution of immunogen 1×103, serum dilution 2×103",85.70%
same,IR (inhibition rate),"mouse antiserum; dilution of immunogen 1×103, serum dilution 2.56×105",75.15%
same,IR (inhibition rate),"mouse antiserum; dilution of immunogen 1×103, serum dilution 3.2×104",46.44%
same,IR (inhibition rate),"mouse antiserum; dilution of immunogen 1×103, serum dilution 4×103",88.04%
same,IR (inhibition rate),"mouse antiserum; dilution of immunogen 1×103, serum dilution 6.4×104",35.52%
same,IR (inhibition rate),"mouse antiserum; dilution of immunogen 1×103, serum dilution 8×103",81.46%
same,IR (inhibition rate),"mouse antiserum; dilution of immunogen 1.6×104, serum dilution 1.28×105",-52.80%
same,IR (inhibition rate),"mouse antiserum; dilution of immunogen 1.6×104, serum dilution 1.6×104",58.64%
same,IR (inhibition rate),"mouse antiserum; dilution of immunogen 1.6×104, serum dilution 2×103",85.05%
same,IR (inhibition rate),"mouse antiserum; dilution of immunogen 1.6×104, serum dilution 2.56×105",71.56%
same,IR (inhibition rate),"mouse antiserum; dilution of immunogen 1.6×104, serum dilution 3.2×104",28.55%
same,IR (inhibition rate),"mouse antiserum; dilution of immunogen 1.6×104, serum dilution 4×103",82.62%
same,IR (inhibition rate),"mouse antiserum; dilution of immunogen 1.6×104, serum dilution 6.4×104",11.18%
same,IR (inhibition rate),"mouse antiserum; dilution of immunogen 1.6×104, serum dilution 8×103",81.51%
same,IR (inhibition rate),"mouse antiserum; dilution of immunogen 2×103, serum dilution 1.28×105",14.21%
same,IR (inhibition rate),"mouse antiserum; dilution of immunogen 2×103, serum dilution 1.6×104",61.99%
same,IR (inhibition rate),"mouse antiserum; dilution of immunogen 2×103, serum dilution 2×103",85.14%
same,IR (inhibition rate),"mouse antiserum; dilution of immunogen 2×103, serum dilution 2.56×105",74.90%
same,IR (inhibition rate),"mouse antiserum; dilution of immunogen 2×103, serum dilution 3.2×104",51.64%
same,IR (inhibition rate),"mouse antiserum; dilution of immunogen 2×103, serum dilution 4×103",86.95%
same,IR (inhibition rate),"mouse antiserum; dilution of immunogen 2×103, serum dilution 6.4×104",10.11%
same,IR (inhibition rate),"mouse antiserum; dilution of immunogen 2×103, serum dilution 8×103",79.58%
same,IR (inhibition rate),"mouse antiserum; dilution of immunogen 3.2×104, serum dilution 1.28×105",17.80%
same,IR (inhibition rate),"mouse antiserum; dilution of immunogen 3.2×104, serum dilution 1.6×104",74.44%
same,IR (inhibition rate),"mouse antiserum; dilution of immunogen 3.2×104, serum dilution 2×103",84.75%
same,IR (inhibition rate),"mouse antiserum; dilution of immunogen 3.2×104, serum dilution 2.56×105",72.21%
same,IR (inhibition rate),"mouse antiserum; dilution of immunogen 3.2×104, serum dilution 3.2×104",51.77%
same,IR (inhibition rate),"mouse antiserum; dilution of immunogen 3.2×104, serum dilution 4×103",68.48%
same,IR (inhibition rate),"mouse antiserum; dilution of immunogen 3.2×104, serum dilution 6.4×104",28.68%
same,IR (inhibition rate),"mouse antiserum; dilution of immunogen 3.2×104, serum dilution 8×103",80.75%
same,IR (inhibition rate),"mouse antiserum; dilution of immunogen 4×103, serum dilution 1.28×105",7.62%
same,IR (inhibition rate),"mouse antiserum; dilution of immunogen 4×103, serum dilution 1.6×104",63.91%
same,IR (inhibition rate),"mouse antiserum; dilution of immunogen 4×103, serum dilution 2×103",86.78%
same,IR (inhibition rate),"mouse antiserum; dilution of immunogen 4×103, serum dilution 2.56×105",78.43%
same,IR (inhibition rate),"mouse antiserum; dilution of immunogen 4×103, serum dilution 3.2×104",47.70%
same,IR (inhibition rate),"mouse antiserum; dilution of immunogen 4×103, serum dilution 4×103",87.39%
same,IR (inhibition rate),"mouse antiserum; dilution of immunogen 4×103, serum dilution 6.4×104",24.90%
same,IR (inhibition rate),"mouse antiserum; dilution of immunogen 4×103, serum dilution 8×103",81.74%
same,IR (inhibition rate),"mouse antiserum; dilution of immunogen 8×103, serum dilution 1.28×105",7.17%
same,IR (inhibition rate),"mouse antiserum; dilution of immunogen 8×103, serum dilution 1.6×104",58.20%
same,IR (inhibition rate),"mouse antiserum; dilution of immunogen 8×103, serum dilution 2×103",87.26%
same,IR (inhibition rate),"mouse antiserum; dilution of immunogen 8×103, serum dilution 2.56×105",59.68%
same,IR (inhibition rate),"mouse antiserum; dilution of immunogen 8×103, serum dilution 3.2×104",15.68%
same,IR (inhibition rate),"mouse antiserum; dilution of immunogen 8×103, serum dilution 4×103",84.15%
same,IR (inhibition rate),"mouse antiserum; dilution of immunogen 8×103, serum dilution 6.4×104",7.82%
same,IR (inhibition rate),"mouse antiserum; dilution of immunogen 8×103, serum dilution 8×103",76.22%
